According to publication PMC5267519, “Evaluation of a Novel Renewable Hepatic Cell Model for Prediction of Clinical CYP3A4 Induction Using a Correlation-Based Relative Induction Score Approach” (Drug Metabolism and Disposition, 2017):
pEC50: −log10 of the molar value. Read-outs that look alike come from different tables or passages of the source. Values belong to the molecule of their own block, whether it stands above or below them.

What was measured:
CYP3A4 [1] = settings: for RIS Based on Enzyme Activity: RIS = (Emax × Cmax,ub)/(EC50 + Cmax,ub)
CYP3A4 [2] = settings: cited from earlier work
CYP3A4 [3] = system: CYP3A4
Description: The resulting fitting equation was used to calculate predicted in vivo AUC change for each compound. […] Prediction accuracy using HepatoCells was also compared with prediction accuracy using primary human hepatocytes.

CYP3A4 mRNA [4] = experiment: Concentration-dependent CYP3A4 mRNA induction in HepatoCells; settings: for Emax / pEC50: CYP3A4 mRNA fold increase, NI = no induction observed at tested concentration; for Emax: 3 consecutive days treatment, quinidine: only observed maximum fold induction; for RIS Based on mRNA: RIS = (Emax × Cmax,ub)/(EC50 + Cmax,ub); for pEC50: human, nominal concentrations; for CYP3A4 mRNA expression induction response (in words): three lots of HepatoCells, eight concentrations
Method: (§1) Cryopreserved HepatoCells were thawed quickly in a 37°C water bath and transferred to Corning Culture Medium for HepatoCells supplemented with 10% fetal bovine serum and Pen/Strep (plating medium). After the cryo-freezing media was removed by centrifugation at 150g for 10 minutes, the cell pellet was resuspended in plating media and cell count was performed with trypan blue. Cells were then seeded in a Corning BioCoat Collagen I–coated plate (500,000 cells/well in 24-well plate or 80,000 cells/well in 96-well plate), and plates were incubated in a 37°C incubator with 5% CO2. […] Cells were then returned to the incubator for overnight culture.
(§2) Stock solutions of test compounds were prepared by dissolving each compound in DMSO and serially diluting the solutions in DMSO. Final working solutions were freshly prepared daily by diluting the 1000× stock solutions in culture medium. Three lots of HepatoCells culture were treated with eight concentrations of test compounds. Both enzymatic activity (testosterone 6β hydroxylase activity) and mRNA expression were measured as endpoints using LC-MS/MS and real-time reverse-transcription polymerase chain reaction, respectively.
(§3) Only curve fitting with correlation coefficient (R^2) > 0.85 is accepted. At high concentrations for some compounds, if toxicity or insolubility becomes obvious, such data are excluded from curve fitting.

CYP3A4 mRNA [5] = system: CYP3A4 mRNA
Method: as §1, §2, §3

CYP3A4 [6] = settings: hepatocytes; cited from earlier work
MRP2 = target: T1, MRP2 (Homo sapiens, UniProt Q92887); experiment: CDFDA staining of bile canaliculi in HepatoCells sandwich culture; assay type: cell-based; settings: pretreatment with inhibitor
T1 construct: the functional efflux transporter MRP2 is expressed and localized at the apical surface of HepatoCells; host or cells: Corning HepatoCells, collagen/Matrigel sandwich culture
T1 sequence (Q92887 whole entry): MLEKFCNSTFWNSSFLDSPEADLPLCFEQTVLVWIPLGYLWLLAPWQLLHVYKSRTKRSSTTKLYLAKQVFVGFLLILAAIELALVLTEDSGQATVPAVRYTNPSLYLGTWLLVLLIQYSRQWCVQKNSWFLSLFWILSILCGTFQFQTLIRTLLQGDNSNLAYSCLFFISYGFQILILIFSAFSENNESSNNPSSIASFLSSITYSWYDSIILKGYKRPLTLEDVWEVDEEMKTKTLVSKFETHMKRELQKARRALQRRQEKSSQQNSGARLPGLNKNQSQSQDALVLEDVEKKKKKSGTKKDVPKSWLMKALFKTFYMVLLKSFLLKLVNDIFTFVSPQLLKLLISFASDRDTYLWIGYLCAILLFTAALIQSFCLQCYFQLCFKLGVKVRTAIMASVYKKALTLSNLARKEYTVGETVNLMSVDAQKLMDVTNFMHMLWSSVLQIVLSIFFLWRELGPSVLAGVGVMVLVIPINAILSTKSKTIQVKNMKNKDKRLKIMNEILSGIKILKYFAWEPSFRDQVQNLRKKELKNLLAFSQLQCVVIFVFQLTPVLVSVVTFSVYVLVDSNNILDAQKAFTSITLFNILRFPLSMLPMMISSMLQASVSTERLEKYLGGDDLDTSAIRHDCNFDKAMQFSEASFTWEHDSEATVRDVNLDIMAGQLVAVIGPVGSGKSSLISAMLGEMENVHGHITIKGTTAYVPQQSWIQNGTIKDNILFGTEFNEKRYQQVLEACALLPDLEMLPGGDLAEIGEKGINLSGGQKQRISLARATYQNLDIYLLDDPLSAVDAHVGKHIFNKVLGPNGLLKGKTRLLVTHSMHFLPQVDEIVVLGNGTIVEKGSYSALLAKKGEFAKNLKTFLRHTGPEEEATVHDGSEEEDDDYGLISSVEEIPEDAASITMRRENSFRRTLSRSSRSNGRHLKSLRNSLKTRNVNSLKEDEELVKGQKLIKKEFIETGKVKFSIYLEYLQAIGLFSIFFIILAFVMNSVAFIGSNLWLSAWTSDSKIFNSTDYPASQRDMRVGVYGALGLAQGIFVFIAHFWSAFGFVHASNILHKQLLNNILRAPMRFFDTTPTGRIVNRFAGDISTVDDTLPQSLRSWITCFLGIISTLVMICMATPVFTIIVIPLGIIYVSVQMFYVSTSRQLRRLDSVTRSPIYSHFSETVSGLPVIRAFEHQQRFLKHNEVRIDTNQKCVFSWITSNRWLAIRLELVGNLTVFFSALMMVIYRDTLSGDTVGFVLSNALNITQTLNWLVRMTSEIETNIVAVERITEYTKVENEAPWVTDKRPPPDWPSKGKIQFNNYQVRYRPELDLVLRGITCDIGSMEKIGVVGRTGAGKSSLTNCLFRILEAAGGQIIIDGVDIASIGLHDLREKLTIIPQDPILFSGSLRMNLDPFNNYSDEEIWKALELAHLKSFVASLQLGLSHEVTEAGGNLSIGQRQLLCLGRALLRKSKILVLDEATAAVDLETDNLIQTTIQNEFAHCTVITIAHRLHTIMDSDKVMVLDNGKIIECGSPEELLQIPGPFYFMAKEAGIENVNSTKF
Method: On day 1, HepatoCells were plated on collagen-coated dishes. Four to six hours after seeding, cell monolayer was overlaid with Matrigel solution at 0.25 mg/mL (as described above). Daily medium change was performed from day 2 to day 4 using fresh Corning Culture Medium for HepatoCells. On day 5, the sandwich cultures were incubated with carboxy-dichlorofluorescein diacetate (CDFDA), a multidrug-resistant protein 2 (MRP2) substrate that is metabolized by cytosolic esterases. The fluorescent CDFDA metabolite accumulated in bile canalicular lumens was visualized using fluorescence microscopy.

[7] = range over named compounds and three lots
[8] = Lot 2B HepatoCells, RIS calibration curve
[9] = Lot 3A HepatoCells, RIS calibration curve
[10] = Lot 3B HepatoCells, RIS calibration curve
[11] = three lots of HepatoCells, eight concentrations

SMILES: NC(=O)N1c2ccccc2C=Cc2ccccc21 [Carbamazepine]
RIS Based on Enzyme Activity (CYP3A4 [1]; Lot 2B): 0.67
RIS Based on Enzyme Activity (CYP3A4 [1]; Lot 3A): 0.8
RIS Based on Enzyme Activity (CYP3A4 [1]; Lot 3B): 0.9
RIS Based on Enzyme Activity, Mean (CYP3A4 [1]; mean of lots 2B, 3A, 3B): 0.8
RIS values based on enzyme activity (range stated for group of compounds) (CYP3A4 [1]; [7]): 0.7–24
Observed % AUC Change (CYP3A4 [2]; clinical DDI, decrease in AUC of victim drug (midazolam or nonmidazolam), ref Zhang et al., 2014): 94%
Predicted % AUC Change Based on Activity (CYP3A4 [3]; [8]): 92%
Predicted % AUC Change Based on mRNA (CYP3A4 [3]; [8]): 86%
Predicted % AUC Change Based on Activity (CYP3A4 [3]; [9]): 92%
Predicted % AUC Change Based on mRNA (CYP3A4 [3]; [9]): 87%
Predicted % AUC Change Based on Activity (CYP3A4 [3]; [10]): 87%
Predicted % AUC Change Based on mRNA (CYP3A4 [3]; [10]): 95%
Emax (CYP3A4 mRNA [4]; Lot 2B HepatoCells): 16 Fold
RIS Based on mRNA (CYP3A4 mRNA [4]; Lot 2B): 0.76
Emax (CYP3A4 mRNA [4]; Lot 3A HepatoCells): 10 Fold
RIS Based on mRNA (CYP3A4 mRNA [4]; Lot 3A): 0.77
Emax (CYP3A4 mRNA [4]; Lot 3B HepatoCells): 14 Fold
RIS Based on mRNA (CYP3A4 mRNA [4]; Lot 3B): 1.3
pEC50 (CYP3A4 mRNA [4]; EC50, Lot 2B HepatoCells): 3.97
pEC50 (CYP3A4 mRNA [4]; EC50, Lot 3A HepatoCells): 4.19
pEC50 (CYP3A4 mRNA [4]; EC50, Lot 3B HepatoCells): 4.28
RIS Based on mRNA, Mean (CYP3A4 mRNA [4]; mean of lots 2B, 3A, 3B): 0.9
RIS values based on CYP3A4 mRNA level (range stated for group of compounds) (CYP3A4 mRNA [4]; [7]): 0.8–25

SMILES: Clc1ccccc1C(c1ccccc1)(c1ccccc1)n1ccnc1 [Clotrimazole]
CYP3A4 mRNA expression induction response (in words) (CYP3A4 mRNA [5]): induced an increase
RIS Based on mRNA, Mean (CYP3A4 mRNA [5]; human): 0.0044
CYP3A4 enzyme activity induction response (in words) (CYP3A4 [1]): did not increase
Observed % AUC Change (CYP3A4 [2]; human, in vivo): 9.7%
Emax, CYP3A4 enzyme activity (CYP3A4 [6]): 3.1- to 3.3 fold
Predicted % AUC Change Based on Activity (CYP3A4 [3]): 0%
Predicted % AUC Change Based on mRNA (CYP3A4 [3]): 0.00%

SMILES: C[C@H]1O[C@@H](O[C@H]2[C@@H](O)C[C@H](O[C@H]3[C@@H](O)C[C@H](O[C@H]4CC[C@@]5(C)[C@H](CC[C@@H]6[C@@H]5C[C@@H](O)[C@]5(C)[C@@H](C7=CC(=O)OC7)CC[C@]65O)C4)O[C@@H]3C)O[C@@H]2C)C[C@H](O)[C@@H]1O [Digoxin]
CYP3A4 enzyme activity induction response (in words) (CYP3A4 [1]; [11]): no induction response
CYP3A4 mRNA expression induction response (in words) (CYP3A4 mRNA [4]): no induction response

SMILES: CN(C)C(=O)CCSC(SCCC(=O)O)c1cccc(/C=C/c2ccc3ccc(Cl)cc3n2)c1 (stereo not shown) [MK571]
effect on CDFDA staining of bile canaliculi (MRP2): inhibited the specific CDFDA staining of bile canaliculi

Second part, the molecule after the results:

CYP3A4 enzyme activity induction response (in words) (CYP3A4 [1]; [11]): no induction response
CYP3A4 mRNA expression induction response (in words) (CYP3A4 mRNA [4]): no induction response
SMILES: CCOC(=O)c1ncn2c1CN(C)C(=O)c1cc(F)ccc1-2 [Flumazenil]

CYP3A4 enzyme activity induction response (in words) (CYP3A4 [1]; [11]): no induction response
CYP3A4 mRNA expression induction response (in words) (CYP3A4 mRNA [4]): no induction response
SMILES: CN(Cc1cnc2nc(N)nc(N)c2n1)c1ccc(C(=O)N[C@@H](CCC(=O)O)C(=O)O)cc1 [Methotrexate]
